Test results: ChEMBL document CHEMBL3352163, “Anthracene-9, 10-dione derivatives induced apoptosis in human cervical cancer cell line (CaSki) by interfering with HPV E6 expression” (Eur J Med Chem, 2014)
Active and inactive are the calls of the source. The rule behind the calls is not given here.

How the values were obtained:
HepG2 [1] = experiment: Cytotoxicity against human HepG2 cells at 10 uM after 72 hrs by MTT assay; assay type: functional
[2] = Cytotoxicity against human KATO III cells at 10 uM after 72 hrs by MTT assay; assay type: functional, KATO III cell
[3] = Cytotoxicity against human CaSki cells at 10 uM after 72 hrs by MTT assay; assay type: functional, Ca-Ski
SW-620 = experiment: Cytotoxicity against human SW620 cells at 10 uM after 72 hrs by MTT assay; assay type: functional
[4] = Cytotoxicity against human CaSki cells after 72 hrs by MTT assay; assay type: functional, cell-based; conditions: Ca-Ski
[5] = Cytotoxicity against human ChaGo cells at 10 uM after 72 hrs by MTT assay; assay type: functional
[6] = Cytotoxicity against human KATO III cells after 72 hrs by MTT assay; assay type: functional, cell-based, KATO III cell
HepG2 [7] = experiment: Cytotoxicity against human HepG2 cells after 72 hrs by MTT assay; assay type: functional, cell-based; conditions: HepG2, 72 h
Ca-Ski [8] = experiment: Cytotoxicity against human CaSki cells at 10 uM in presence of glutathione relative to control; assay type: functional, cell-based
Ca-Ski [9] = experiment: Induction of apoptosis in human CaSki cells carrying HPV assessed as increase in p53 protein expression after 24 hrs by Western blotting analysis; assay type: functional, cell-based
[10] = Cell cycle arrest in human CaSki cells assessed as accumulation at G2/M phase at 3 uM after 24 hrs by propidium iodide staining-based FACS analysis (reference value: 18.0%); assay type: functional; conditions: Ca-Ski
Ca-Ski [11] = experiment: Induction of apoptosis in human CaSki cells carrying HPV assessed as downregulation of Akt phosphorylation after 24 hrs by Western blotting analysis; assay type: functional, cell-based
[12] = Cell cycle arrest in human CaSki cells assessed as accumulation at G2/M phase at 0.3 uM after 24 hrs by propidium iodide staining-based FACS analysis (reference value: 18.0%); assay type: functional; conditions: Ca-Ski
Ca-Ski [13] = experiment: Inhibition of colony formation in human CaSki cells at 5 uM after 24 hrs by crystal violet staining-based fluorescence microscopy; assay type: functional, cell-based
[14] = Cell cycle arrest in human CaSki cells assessed as accumulation at S phase at 1.5 uM after 24 hrs by propidium iodide staining-based FACS analysis (reference value: 14.1%); assay type: functional; conditions: Ca-Ski
[15] = Cell cycle arrest in human CaSki cells assessed as accumulation at G1 phase at 0.3 uM after 24 hrs by propidium iodide staining-based FACS analysis (reference value: 61.3%); assay type: functional; conditions: Ca-Ski
Ca-Ski [16] = experiment: Induction of apoptosis in human CaSki cells carrying HPV assessed as inhibition of Bcl-2 protein expression at 0.3 uM after 24 hrs by Western blotting analysis; assay type: functional, cell-based
[17] = Cell cycle arrest in human CaSki cells assessed as accumulation at G1 phase at 3 uM after 24 hrs by propidium iodide staining-based FACS analysis (reference value: 61.3%); assay type: functional; conditions: Ca-Ski
[18] = Cell cycle arrest in human CaSki cells assessed as accumulation at G1 phase at 1.5 uM after 24 hrs by propidium iodide staining-based FACS analysis (reference value: 61.3%); assay type: functional; conditions: Ca-Ski
[19] = Cytotoxicity against human ChaGo cells after 72 hrs by MTT assay; assay type: functional, cell-based
Ca-Ski [20] = experiment: Induction of apoptosis in human CaSki cells carrying HPV assessed as increase in procaspase-3 protein expression after 24 hrs by Western blotting analysis; assay type: functional, cell-based
[21] = Cell cycle arrest in human CaSki cells assessed as accumulation at G2/M phase after 24 hrs by propidium iodide staining-based FACS analysis; assay type: functional; conditions: Ca-Ski
[22] = Cell cycle arrest in human CaSki cells assessed as accumulation at G2/M phase at 1.5 uM after 24 hrs by propidium iodide staining-based FACS analysis (reference value: 18.0%); assay type: functional; conditions: Ca-Ski
[23] = Cell cycle arrest in human CaSki cells assessed as accumulation at G0 phase at 0.3 uM after 24 hrs by propidium iodide staining-based FACS analysis (reference value: 1.5%); assay type: functional; conditions: Ca-Ski
[24] = Cell cycle arrest in human CaSki cells assessed as accumulation at S phase at 0.3 uM after 24 hrs by propidium iodide staining-based FACS analysis (reference value: 14.1%); assay type: functional; conditions: Ca-Ski
[25] = Cell cycle arrest in human CaSki cells assessed as accumulation at S phase at 3 uM after 24 hrs by propidium iodide staining-based FACS analysis (reference value: 14.1%); assay type: functional; conditions: Ca-Ski
[26] = Cytotoxicity against human WI38 cells after 72 hrs by MTT assay; assay type: cell-based; conditions: WI-38, 72 h
[27] = Cell cycle arrest in human CaSki cells assessed as accumulation at G0 phase at 1.5 uM after 24 hrs by propidium iodide staining-based FACS analysis (reference value: 1.5%); assay type: functional; conditions: Ca-Ski
[28] = Cell cycle arrest in human CaSki cells assessed as accumulation at G0 phase at 3 uM after 24 hrs by propidium iodide staining-based FACS analysis (reference value: 1.5%); assay type: functional; conditions: Ca-Ski
Ca-Ski [29] = experiment: Induction of apoptosis in human CaSki cells by DAPI staining-based fluorescence microscopy; assay type: functional, cell-based
Ca-Ski [30] = experiment: Induction of apoptosis in human CaSki cells carrying HPV assessed as reduction of E6 mRNA expression at 0.3 uM after 24 hrs by RT-PCR analysis; assay type: functional, cell-based

## O=C1c2ccccc2C(=O)c2c(O)ccc(O)c21 [QUINIZARIN]
HepG2 [1]
  Activity: 5.6%
[2]
  Activity: 38.4%
[3]
  Activity: 48.6%
SW-620
  Activity: 21.1%
[4]
  IC50: > 10 µM
[5]
  Activity: 12.3%

## Cc1ccc(S(=O)(=O)Oc2ccc(NCc3ccccc3)c3c2C(=O)c2ccccc2C3=O)cc1
HepG2 [1]
  Activity: 40.5%
[6]
  IC50: > 5.7 µM
HepG2 [7]
  IC50: > 5.7 µM
Ca-Ski [8]
  Activity: Active
[2]
  Activity: 41.5%
Ca-Ski [9]
  Activity: Active
[10]
  Activity: 46.2%
Ca-Ski [11]
  Activity: Dose-dependent effect
[12]
  Activity: 19.5%
Ca-Ski [13]
  inhibition: Active
[3]
  Activity: 84.5%
[14]
  Activity: 13.7%
[15]
  Activity: 62%
Ca-Ski [16]
  inhibition: Active
[17]
  Activity: 12.4%
SW-620
  Activity: 49.1%
[18]
  Activity: 31.7%
[19]
  IC50: > 5.7 µM
Ca-Ski [20]
  Activity: Active
[21]
  Activity: Dose-dependent effect
[22]
  Activity: 33.8%
[23]
  Activity: 1.9%
[24]
  Activity: 12.6%
[25]
  Activity: 14.2%
[26]
  IC50: > 10 µM
[27]
  Activity: 11%
[5]
  Activity: 39.8%
[28]
  Activity: 10.9%
Ca-Ski [29]
  Activity: Dose-dependent effect
Ca-Ski [30]
  Activity: Active

## Cc1ccc(S(=O)(=O)Oc2ccc(NCCc3ccccc3)c3c2C(=O)c2ccccc2C3=O)cc1
HepG2 [1]
  Activity: 8.3%
[2]
  Activity: 42.5%
[3]
  Activity: 27.4%
SW-620
  Activity: 49.5%
[5]
  Activity: 13.3%

## Cc1ccc(S(=O)(=O)Oc2ccc(OS(=O)(=O)c3ccc(C)cc3)c3c2C(=O)c2ccccc2C3=O)cc1
HepG2 [1]
  Activity: 11.9%
[2]
  Activity: 31.1%
[3]
  Activity: 36.4%
SW-620
  Activity: 22.2%
[5]
  Activity: 5.8%

## Cc1ccc(S(=O)(=O)Oc2ccc(N3CCOCC3)c3c2C(=O)c2ccccc2C3=O)cc1
HepG2 [1]
  Activity: 6.1%
[2]
  Activity: 35.3%
[3]
  Activity: 43.8%
SW-620
  Activity: 22.3%
[5]
  Activity: 11.3%

## Cc1ccc(S(=O)(=O)Oc2ccc(NCCN3CCOCC3)c3c2C(=O)c2ccccc2C3=O)cc1
HepG2 [1]
  Activity: 11.1%
[2]
  Activity: 29.3%
[3]
  Activity: 42.8%
SW-620
  Activity: 19.4%
[5]
  Activity: 4.9%

## CCN(CC)c1ccc(OS(=O)(=O)c2ccc(C)cc2)c2c1C(=O)c1ccccc1C2=O
HepG2 [1]
  Activity: 35.6%
[2]
  Activity: 39.9%
[3]
  Activity: 50%
SW-620
  Activity: 32.6%
[4]
  IC50: 0.3 µM
[5]
  Activity: 43.9%
